The text below walks through data of paper PMC10096123, “14-Substituted Diquinothiazines as a New Group of Anticancer Agents” (Molecules, 2023).

The term IC50 denotes the point on the concentration scale where inhibition reaches its midpoint. Usually melting point stands for the temperature, or range, at which the solid turns liquid.

The subject of one series is SH-SY5Y cells. Kind of series: 72-h MTT viability assay, SH-SY5Y. Format: cell-based, human. To be noted: Homo sapiens, SH-SY5Y, 72 h incubation, mean of 3 experiments +/-SD, no effect = viability (SF) similar to control, about 100%. The source says: (§1) The IC50 for cell viability was described with a dose of the drug, with a 50% reduction in the whole population, when compared to the untreated controls. The obtained results allow for a comparison of different compounds, using the same or different targeted cell lines. Cell survival fractions (SF), followed by the MTT 72-h viability assay for the HCT116 and SH-5YSY cells, are presented in the Supplementary File (Figure S1).
(§2) For cytological studies, human cancer cell lines were chosen, with special emphasis on the colorectal, HCT116, and neuroblastoma SH-5YSY cell lines, as well as lung normal epithelial BEAS-2B and cancer H1299 and A549 cancer cell lines (all obtained from the ATTC collection; Manassas, VA, USA). The cells were harvested under the standard conditions in incubator (5% CO2, 37 °C and 60% humidity; Panasonic model MCO-19 AIC). Cells were cultured in T75 mL sterile bottles (Sartedt), using DMEM-F12 medium (Merck, Poznań, Poland) supplemented with 10% of Fetal Bovine Serum (EURx, Gdańsk, Poland). During the experimental procedure, each cell line wasn’t more than 60–80% confluenced, no older than maximal number of passages 30. For adherent cell passages, the enzyme trypsin working solution, prepared in sodium phosphate buffer saline (PBS, pH = 7.4; PAN-Biotech Gmbh, Aidenbach, Germany), was used. The tested compounds were prepared as […] stocks in 100% DMSO (Merck, Poznań, Poland), and were stored at −20 °C. Before use in cytological studies, the working solution of each compound was prepared directly in complete DMEM-F12 medium. A positive-control, anticancer drug, etoposide (Merck, Poznań, Poland), was dissolved and prepared as solutions with doses of 20, 10, 5, 2.5, 1.25, 0.63 µM (0 µM for control, untreated cells in DMEM-F12 without any tested compound additions), respectively.
(§3) HCT116 and SH-5YSY cells collected after trypsinization were counted under the Bürker’s chamber, and 2000 or 5000 cells were seeded on each well of the 96-well-format sterile plate (Sarstedt, Nümbrecht, Germany), in 100 µL of complete DMEM-F12 medium, respectively. Twenty-four hours before compound addition, the cells were monitored directly on plates; only well-attached cells were used for treatments with background controls (DMSO with final maximal concentration of 1%) and untreated controls. The normal lung (BEAS-2B) and cancer (H1299 and […]) cell lines were cultured and prepared for viability MTT assay in similar way. To treat wells, 100 µL of tested compounds in fresh medium were added at concentration range of 100, 50, 25, 12.5, 6.25, 3.13 µM (0 µM for control, untreated cells in DMEM-F12 without any tested compound additions). An etoposide as a positive control, as anticancer drug, was prepared in similar way. Followed by 72 h of incubation, the viability assay was performed according to the producer protocol (Promega, Madison, WI, USA), where the medium and compounds were removed and cells were washed with PBS solution. A yellow tetrazolium salt (3-(4,5-dimethylthiazol-2-yl)-2,5-diphenyltetrazolium bromide solution (0.5 mg/mL) in serum and phenol red-free DMEM (Merck, Poznań, Poland) was added to each well on plates at a volume of 50 µL for 2–3 h of darkness, at 37 °C incubation. The purple formazan crystals were produced only by the viable cells, containing NAD (P)H-dependent oxidoreductase enzymes, which reduce the MTT. The crystals were dissolved in acidic (0.04 M HCl) 2-propanolol solution (Merck, Poznań, Poland) after addition of 75 µL of dissolving mixture to each well on plates for 5–10 min in darkness and at room-temperature (RT) incubation. The absorption at 570 nm was measured directly using multiplate reader (Epoch, BioTek, Winooski, VT, USA). Each time, the biological experiments were repeated three times.
(§4) Obtained absorbance was analyzed for proliferation and survival fraction (SF) assessments, where tested samples were compared to the untreated controls (100%). […]
(Formazan colour is commonly taken as a measure of viable cells.)

Series [1] concerns HCT116, SH-SY5Y, A549, H1299 cell lines. The series can be described thus: 72-h MTT viability assay, all cell lines used in the study (summary statements). Format: cell-based, human. Particulars: HCT116 and SH-SY5Y, in words.
Description: as §1, §2
HCT116 and SH-5YSY cells collected after trypsinization were counted under the Bürker’s chamber, and 2000 or 5000 cells were seeded on each well of the 96-well-format sterile plate (Sarstedt, Nümbrecht, Germany), in 100 µL of complete DMEM-F12 medium, respectively. Twenty-four hours before compound addition, the cells were monitored directly on plates; only well-attached cells were used for treatments with background controls (DMSO with final maximal concentration of 1%) and untreated controls. The normal lung (BEAS-2B) and cancer (H1299 and […]) cell lines were cultured and prepared for viability MTT assay in similar way. […] The absorption at 570 nm was measured directly using multiplate reader (Epoch, BioTek, Winooski, VT, USA). […]
as §4

Another series deals with A549 cells. Kind of series: 72-h MTT viability assay, A549. Format: cell-based, human. To be noted: Homo sapiens, A549, 72 h, 72 h incubation, mean of 3 experiments +/-SD.
Description: as §1, §2, §3, §4

Another series relates to HCT116 cells. Kind of series: 72-h MTT viability assay, HCT116. It is filed as cell-based, human. To be noted: Homo sapiens, HCT-116, 72 h, 72 h incubation, mean of 3 experiments +/-SD.
Description: as §1, §2, §3, §4

Another series relates to H1299 cells. The series can be described thus: 72-h MTT viability assay, H1299. Format: cell-based, human. To be noted: Homo sapiens, NCI-H1299, 72 h, 72 h incubation, mean of 3 experiments +/-SD.
Description: as §1, §2, §3, §4

The next series relates to BEAS-2B cells. Kind of series: 72-h MTT viability assay, normal lung epithelial BEAS-2B. It is filed as cell-based, human. To be noted: Homo sapiens, BEAS-2B, 72 h incubation, mean of 3 experiments +/-SD, no effect = viability (SF) similar to control, about 100%.
Description: as §1, §2, §3, §4

Take `CC(=O)NCCN1c2c(cnc3ccccc23)Sc2cnc3ccccc3c21` [Compound 5a, 14-acetylaminoethyldiquinothiazine]: the melting point lay in the range of 89 to 90 °C. Further, the IC50 in the series with SH-SY5Y cells was 24.7 ± 5.44 µM. The “anticancer activity (ranking within the series)” value in series [1] was “lowest anticancer activity”. The same compound returned an IC50 with A549 cells of 71.1 ± 14.7 µM. In addition, the IC50 in the series with HCT116 cells amounted to 25.9 ± 4.87 µM. The same compound displayed a concentration for half-maximal inhibition (IC50) in the series with H1299 cells of 26.2 ± 1.99 µM. In the series with BEAS-2B cells, this compound registered an IC50 of 108 ± 9.83 µM.
